Data reported in patent US12692253B2, “Antimicrobial compounds and methods” (Curza Global, LLC, priority 2019, dated 2026).

Tests used:
[1] = tested on: S. aureus (Sa); assay: Broth microdilution minimum inhibitory concentration (MIC), CLSI; type: cell-based; conditions: Staphylococcus aureus, growth medium supplemented with sodium bicarbonate, read-out: Sa + bicarb MIC
How it was run: (§1)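 CLSI M07-A9 broth microdilution, slightly modified: 8 two-fold compound dilutions in triplicate, CAMHB ± bicarbonate (6.25 or 25 mM final) or 0-50% heat-inactivated human serum; 5×10^4 CFU/well.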

[2] = tested on: E. coli (Ec); assay: as above; type: cell-based; conditions: Escherichia coli, growth medium supplemented with sodium bicarbonate, read-out: E. coli + bicarb MIC
How it was run: as §1

[3] = tested on: E. faecalis (Ef); assay: as above; type: cell-based; conditions: Enterococcus faecalis, growth medium supplemented with sodium bicarbonate, read-out: Ef + bicarb MIC
How it was run: as §1

[4] = tested on: P. aeruginosa (Pa); assay: as above; type: cell-based; conditions: Pseudomonas aeruginosa, growth medium supplemented with sodium bicarbonate, read-out: Pa MIC + bicarb
How it was run: as §1

[5] = tested on: A. baumannn (Ab); assay: as above; type: cell-based; conditions: Acinetobacter baumannii, read-out: Ab + bicarb MIC
How it was run: as §1

[6] = tested on: E. coli S30 extract (bacterial protein synthesis); assay: E. coli S30 extract coupled transcription-translation luciferase assay (inhibition of bacterial protein synthesis); type: biochemical; conditions: class by IC50 or % inhibition @ 1 μM, read-out: S30 IC50 (μM/% inhib.)
How it was run: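 Coupled transcription-translation in E. coli S30 circular-DNA extract expressing luciferase from pBESTluc, with 8-point 2-fold compound dilutions; 1 hour at 37 °C, stopped at 4 °C. Luminescence read; % inhibition versus no-inhibitor wells, no-DNA wells as background.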

[7] = biological target: Rabbit Reticulocyte Lysate (eukaryotic protein synthesis); assay: Rabbit reticulocyte lysate luciferase assay (inhibition of eukaryotic protein synthesis); type: biochemical; conditions: class by IC50 or % inhibition @ 1 μM, read-out: Rabbit reticulocyte IC50 (μM/% inhib.)
How it was run: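 In vitro translation of luciferase control RNA in nuclease-treated rabbit reticulocyte lysate with amino acid mixture, compounds in 2-fold serial dilution, 90 minutes at 30° C. Luminescence read after luciferase reagent; % inhibition relative to water no-inhibitor controls, with no-RNA background wells.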

| SMILES | MIC [1] | MIC [2] | MIC [3] | MIC [4] | MIC [5] | IC50 [6] | IC50 [7] |
| --- | --- | --- | --- | --- | --- | --- | --- |
| CC(C)(N)C(=O)N1CCN(C(=O)Nc2ccn(-c3ccc(CCN4C[C@@H]5[C@@H](CN)[C@@H]5C4)c(F)c3)c(=O)n2)CC1 [Compound 127] | 8 to 32 µg/mL | < 8 µg/mL | 8 to 32 µg/mL | 8 to 32 µg/mL | > 32 µg/mL | < 0.5 µM | ≥ 1 µM |
| Cc1cc(-n2ccc(NC(=O)N3CCN(C(=O)[C@@](C)(N)CO)CC3)nc2=O)ccc1CCN1CC2CC2(CN)C1 (stereo partly drawn) [Compound 128] | < 8 µg/mL | < 8 µg/mL | 8 to 32 µg/mL | > 32 µg/mL | > 32 µg/mL | < 0.5 µM | ≥ 1 µM |
| Cc1cc(-n2ccc(NC(=O)N3CCN(C(=O)[C@@](C)(N)CO)CC3)nc2=O)ccc1CCN1C[C@@H]2[C@@H](CN)[C@@H]2C1 [Compound 129] | < 8 µg/mL | < 8 µg/mL | 8 to 32 µg/mL | 8 to 32 µg/mL | > 32 µg/mL | < 0.5 µM | ≥ 1 µM |
| Cc1cc(-n2ccc(NC(=O)N3CCN(C(=O)C(C)(C)N)CC3)nc2=O)ccc1CCN1CC2CC2(CN)C1 (stereo not drawn) [Compound 130] | < 8 µg/mL | < 8 µg/mL | < 8 µg/mL | 8 to 32 µg/mL | 8 to 32 µg/mL | < 0.5 µM | ≥ 1 µM |
| CC(C)(N)C(=O)N1CCN(C(=O)Nc2ccn(-c3ccc(CCN4CC5CC5(CN)C4)c(C(F)(F)F)c3)c(=O)n2)CC1 (stereo not drawn) [Compound 131] | < 8 µg/mL | < 8 µg/mL | < 8 µg/mL | > 32 µg/mL | 8 to 32 µg/mL | < 0.5 µM | ≥ 1 µM |
| COc1cc(-n2ccc(NC(=O)N3CCN(C(=O)C(C)(C)N)CC3)nc2=O)ccc1CCN1C[C@@H]2[C@@H](CN)[C@@H]2C1 [Compound 132] | 8 to 32 µg/mL | < 8 µg/mL | 8 to 32 µg/mL | 8 to 32 µg/mL | > 32 µg/mL | < 0.5 µM | ≥ 1 µM |
| COc1cc(-n2ccc(NC(=O)N3CCN(C(=O)C(C)(C)N)CC3)nc2=O)ccc1CCN1CC2CC2(CN)C1 (stereo not drawn) [Compound 133] | 8 to 32 µg/mL | < 8 µg/mL | 8 to 32 µg/mL | > 32 µg/mL | > 32 µg/mL | < 0.5 µM | ≥ 1 µM |
| CC(N)[C@H]1[C@@H]2CN(CCc3ccc(-n4ccc(NC(=O)N5CCN(C(=O)C(C)(C)N)CC5)nc4=O)cc3)C[C@@H]21 (stereo partly drawn) [Compound 134] | < 8 µg/mL | < 8 µg/mL | < 8 µg/mL | 8 to 32 µg/mL | 8 to 32 µg/mL | < 0.5 µM | ≥ 1 µM |
| CCC(Cc1ccc(-n2ccc(NC(=O)N3CCN(C(=O)C(C)(C)N)CC3)nc2=O)cc1)N1C[C@@H]2[C@@H](CN)[C@@H]2C1 (stereo partly drawn) [Compound 135] | < 8 µg/mL | < 8 µg/mL | < 8 µg/mL | < 8 µg/mL | < 8 µg/mL | < 0.5 µM | ≥ 1 µM |
| CC(Cc1ccc(-n2ccc(NC(=O)N3CCN(C(=O)C(C)(C)N)CC3)nc2=O)cc1)N1C[C@@H]2[C@H](C1)[C@H]2C(N)=O (stereo partly drawn) [Compound 136] | > 32 µg/mL | > 32 µg/mL | > 32 µg/mL | > 32 µg/mL | > 32 µg/mL | ≥ 1 µM | ≥ 1 µM |
| CC(C)(N)C(=O)N1CCN(C(=O)Nc2ccn(-c3ccc(C(N)C(=O)N4C[C@@H]5[C@@H](CN)[C@@H]5C4)cc3)c(=O)n2)CC1 (stereo partly drawn) [Compound 137] | > 32 µg/mL | > 32 µg/mL | > 32 µg/mL | > 32 µg/mL | > 32 µg/mL | 0.5 to 1 µM | ≥ 1 µM |
| CNC[C@@H]1[C@H]2CN(C(C)Cc3ccc(-n4ccc(NC(=O)N5CCN(C(=O)C(C)(C)N)CC5)nc4=O)cc3)C[C@@H]12 (stereo partly drawn) [Compound 138] | < 8 µg/mL | < 8 µg/mL | 8 to 32 µg/mL | > 32 µg/mL | > 32 µg/mL | 0.5 to 1 µM | ≥ 1 µM |
| CC(Cc1ccc(-n2ccc(NC(=O)N3CCN(C(=O)C(C)(C)N)CC3)nc2=O)cc1F)N1C[C@@H]2[C@@H](CN)[C@@H]2C1 (stereo partly drawn) [Compound 139] | < 8 µg/mL | < 8 µg/mL | < 8 µg/mL | 8 to 32 µg/mL | 8 to 32 µg/mL | < 0.5 µM | ≥ 1 µM |
| C[C@H](Cc1ccc(-n2ccc(NC(=O)N3CCN(C(=O)C(C)(C)N)CC3)nc2=O)cc1)N1C[C@@H]2[C@@H](CN)[C@@H]2C1 [Compound 140] | < 8 µg/mL | < 8 µg/mL | < 8 µg/mL | 8 to 32 µg/mL | 8 to 32 µg/mL | < 0.5 µM | ≥ 1 µM |
| C[C@@H](Cc1ccc(-n2ccc(NC(=O)N3CCN(C(=O)C(C)(C)N)CC3)nc2=O)cc1)N1C[C@@H]2[C@@H](CN)[C@@H]2C1 [Compound 141] | < 8 µg/mL | < 8 µg/mL | < 8 µg/mL | < 8 µg/mL | 8 to 32 µg/mL | < 0.5 µM | ≥ 1 µM |
| CC(C)(N)C(=O)N1CCN(C(=O)Nc2ccn(-c3cccc(CCN4CC5CC5(CN)C4)c3)c(=O)n2)CC1 (stereo not drawn) [Compound 142] | 8 to 32 µg/mL | < 8 µg/mL | 8 to 32 µg/mL | > 32 µg/mL | > 32 µg/mL | 0.5 to 1 µM | ≥ 1 µM |
| CC(C)(N)C(=O)N1CCN(C(=O)Nc2ccn(-c3cccc(CCN4C[C@@H]5[C@@H](CN)[C@@H]5C4)c3)c(=O)n2)CC1 [Compound 143] | 8 to 32 µg/mL | < 8 µg/mL | 8 to 32 µg/mL | > 32 µg/mL | > 32 µg/mL | 0.5 to 1 µM | ≥ 1 µM |
| CC(C)(N)C(=O)N1CCN(C(=O)Nc2ccn(-c3cccc(CCN4C[C@H]5C[C@@]5(N)C4)c3)c(=O)n2)CC1 [Compound 144] | > 32 µg/mL | 8 to 32 µg/mL | > 32 µg/mL | > 32 µg/mL | > 32 µg/mL | ≥ 1 µM | ≥ 1 µM |
| NC[C@@H]1[C@H]2CN(CCc3ccc(-n4ccc(NC(=O)N5CCC6(CCNC6)C5)nc4=O)cc3)C[C@@H]12 (stereo partly drawn) [Compound 145] | 8 to 32 µg/mL | < 8 µg/mL | > 32 µg/mL | > 32 µg/mL | > 32 µg/mL | ≥ 1 µM | ≥ 1 µM |
| NC[C@@H]1[C@H]2CN(CCc3ccc(-n4ccc(NC(=O)N5CCC6(CC5)CC(N)C6)nc4=O)cc3)C[C@@H]12 [Compound 146] | < 8 µg/mL | < 8 µg/mL | < 8 µg/mL | 8 to 32 µg/mL | 8 to 32 µg/mL | ≥ 1 µM | ≥ 1 µM |
| NC[C@@H]1[C@H]2CN(CCc3ccc(-n4ccc(NC(=O)N5CCC6(CC5)CNC6)nc4=O)cc3)C[C@@H]12 [Compound 147] | < 8 µg/mL | < 8 µg/mL | > 32 µg/mL | > 32 µg/mL | > 32 µg/mL | ≥ 1 µM | ≥ 1 µM |
| NC[C@@H]1[C@H]2CN(CCc3ccc(-n4ccc(NC(=O)N5CC6(CCC6N)C5)nc4=O)cc3)C[C@@H]12 (stereo partly drawn) [Compound 148] | > 32 µg/mL | > 32 µg/mL | > 32 µg/mL | > 32 µg/mL | > 32 µg/mL | ≥ 1 µM | ≥ 1 µM |
| NC[C@@H]1[C@H]2CN(CCc3ccc(-n4ccc(NC(=O)N5CC6(CC(N)C6)C5)nc4=O)cc3)C[C@@H]12 [Compound 149] | 8 to 32 µg/mL | 8 to 32 µg/mL | > 32 µg/mL | > 32 µg/mL | > 32 µg/mL | ≥ 1 µM | ≥ 1 µM |
| CCCC(Cc1ccc(-n2ccc(NC(=O)N3CCN(C(=O)C(C)(C)N)CC3)nc2=O)cc1)N1C[C@@H]2[C@@H](CN)[C@@H]2C1 (stereo partly drawn) [Compound 150] | < 8 µg/mL | < 8 µg/mL | < 8 µg/mL | < 8 µg/mL | < 8 µg/mL | < 0.5 µM | ≥ 1 µM |
| CCC(Cc1ccc(-n2ccc(NC(=O)N3CCN(C(=O)[C@@](C)(N)CO)CC3)nc2=O)cc1)N1C[C@@H]2[C@@H](CN)[C@@H]2C1 (stereo partly drawn) [Compound 151] | < 8 µg/mL | < 8 µg/mL | < 8 µg/mL | 8 to 32 µg/mL | 8 to 32 µg/mL | < 0.5 µM | ≥ 1 µM |
| CC[C@@H](N)C1[C@H]2CN(CCc3ccc(-n4ccc(NC(=O)N5CCN(C(=O)C(C)(C)N)CC5)nc4=O)cc3)C[C@@H]12 (stereo partly drawn) [Compound 152] | > 32 µg/mL | 8 to 32 µg/mL | > 32 µg/mL | > 32 µg/mL | > 32 µg/mL | ≥ 1 µM | ≥ 1 µM |
| CCCC(Cc1ccc(-n2ccc(NC(=O)N3CCN(C(=O)C(C)(C)N)CC3)nc2=O)cc1F)N1C[C@@H]2[C@@H](CN)[C@@H]2C1 (stereo partly drawn) [Compound 153] | < 8 µg/mL | < 8 µg/mL | < 8 µg/mL | 8 to 32 µg/mL | < 8 µg/mL | < 0.5 µM | ≥ 1 µM |
